In the supplement of paper PMC6045584:
± gives the standard deviation of the averaged measurements.

What follows are test systems tested with CC(=O)NCC(=O)N1[C@@H]2CC[C@H]1c1ccc(Nc3ncc(C(F)(F)F)c(NC4CCC4)n3)cc12 (assay: surviving fraction relative to DMSO-only wells; higher = less growth inhibition). Settings: 0.5 nM; exposure time: 5 days.
Outline: (§1)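 For each tumour cell line, log-phase cells were put into 384-well plates at 250–500 cells per well, then after 24 hours exposed continuously for five days to inhibitors at 0.5, 1, 5, 10, 50, 100, 500 and 1000 nM. Viability was assessed by CellTiter-Glo luminescence, with surviving fraction expressed relative to the median of DMSO-only wells. Lines were screened three times and retained only if replicate Pearson r exceeded 0.7 and median Z' exceeded 0.3.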

Compared with C33A CERVIX, HCC70 BREAST is higher in surviving fraction: 0.77 ± 0.079 for the first, 0.976 ± 0.052 for the second.

HCC1395 BREAST and HCC1954 BREAST are within error of each other in surviving fraction: 0.928 ± 0.15 for the first, 0.891 ± 0.079 for the second.

Test System SUM149 BREAST has a surviving fraction of 0.949 ± 0.11.

Same assay, conditions: 1 nM; exposure time: 5 days

Going from C33A CERVIX to HCC70 BREAST, the surviving fraction rises from 0.707 ± 0.032 to 1.03 ± 0.057.

First: HCC1395 BREAST
Second: HCC1954 BREAST
The surviving fraction of the first is higher: 1.05 ± 0.12 for the first, 0.784 ± 0.085 for the second.

SUM149 BREAST showed a surviving fraction of 1.02 ± 0.11.

Same assay, conditions: 5 nM; exposure time: 5 days

C33A CERVIX and HCC70 BREAST are within error of each other in surviving fraction: 0.895 ± 0.062 for the first, 0.982 ± 0.099 for the second.

First: HCC1395 BREAST
Second: HCC1954 BREAST
The surviving fraction of the first is lower: 0.979 ± 0.062 for the first, 1.17 ± 0.054 for the second.

With SUM149 BREAST the surviving fraction was 1.07 ± 0.089.

Same assay, conditions: 10 nM; exposure time: 5 days

C33A CERVIX and HCC70 BREAST are within error of each other in surviving fraction: 0.953 ± 0.069 for the first, 1.01 ± 0.033 for the second.

Going from HCC1395 BREAST to HCC1954 BREAST, the surviving fraction falls from 1.04 ± 0.0025 to 0.986 ± 0.042.

In the case of SUM149 BREAST, the surviving fraction is reported as 0.986 ± 0.056.

Same assay, conditions: 50 nM; exposure time: 5 days

First: C33A CERVIX
Second: HCC70 BREAST
The surviving fraction of the first is lower: 0.665 ± 0.087 for the first, 0.864 ± 0.051 for the second.

HCC1395 BREAST and HCC1954 BREAST are within error of each other in surviving fraction: 0.962 ± 0.12 for the first, 0.828 ± 0.022 for the second.

Work on SUM149 BREAST yielded a surviving fraction of 0.67 ± 0.074.

Same assay, conditions: 100 nM; exposure time: 5 days

C33A CERVIX and HCC70 BREAST are within error of each other in surviving fraction: 0.515 ± 0.03 for the first, 0.488 ± 0.026 for the second.

HCC1395 BREAST and HCC1954 BREAST are within error of each other in surviving fraction: 0.94 ± 0.13 for the first, 0.745 ± 0.14 for the second.

Test System SUM149 BREAST has a surviving fraction of 0.389 ± 0.071.

Same assay, conditions: 500 nM; exposure time: 5 days

First: C33A CERVIX
Second: HCC70 BREAST
The surviving fraction of the first is higher: 0.396 ± 0.011 for the first, 0.243 ± 0.052 for the second.

First: HCC1395 BREAST
Second: HCC1954 BREAST
The surviving fraction of the first is lower: 0.991 ± 0.027 for the first, 1.07 ± 0.021 for the second.

SUM149 BREAST showed a surviving fraction of 0.267 ± 0.029.

Same assay, conditions: 1000 nM; exposure time: 5 days

First: C33A CERVIX
Second: HCC70 BREAST
The surviving fraction of the first is higher: 0.351 ± 0.012 for the first, 0.203 ± 0.036 for the second.

HCC1395 BREAST and HCC1954 BREAST are within error of each other in surviving fraction: 0.928 ± 0.092 for the first, 0.905 ± 0.11 for the second.

Work on SUM149 BREAST yielded a surviving fraction of 0.224 ± 0.032.

These test systems were tested with CC(=O)O[C@H]1C(=O)[C@@]2(C)[C@H]([C@H](OC(=O)c3ccccc3)[C@]3(O)C[C@H](OC(=O)[C@H](O)[C@@H](NC(=O)c4ccccc4)c4ccccc4)C(C)=C1C3(C)C)[C@]1(OC(C)=O)CO[C@@H]1C[C@@H]2O [PACLITAXEL] in the same assay as above. Settings: 0.5 nM; exposure time: 5 days.
Outline: as §1

C33A CERVIX and HCC70 BREAST are within error of each other in surviving fraction: 0.855 ± 0.042 for the first, 0.937 ± 0.071 for the second.

HCC1395 BREAST and HCC1954 BREAST are within error of each other in surviving fraction: 0.749 ± 0.14 for the first, 0.6985 ± 0.00071 for the second.

Work on SUM149 BREAST yielded a surviving fraction of 0.809 ± 0.053.

Same assay, conditions: 1 nM; exposure time: 5 days

C33A CERVIX and HCC70 BREAST are within error of each other in surviving fraction: 0.842 ± 0.054 for the first, 0.81 ± 0.07 for the second.

Compared with HCC1395 BREAST, HCC1954 BREAST is lower in surviving fraction: 0.821 ± 0.065 for the first, 0.569 ± 0.0021 for the second.

For SUM149 BREAST, the surviving fraction was 0.452 ± 0.11.

Same assay, conditions: 5 nM; exposure time: 5 days

Compared with C33A CERVIX, HCC70 BREAST is lower in surviving fraction: 0.328 ± 0.015 for the first, 0.218 ± 0.029 for the second.

Going from HCC1395 BREAST to HCC1954 BREAST, the surviving fraction falls from 0.782 ± 0.033 to 0.199 ± 0.0014.

In the case of SUM149 BREAST, the surviving fraction is reported as 0.0573 ± 0.004.

Same assay, conditions: 10 nM; exposure time: 5 days

First: C33A CERVIX
Second: HCC70 BREAST
The surviving fraction of the first is higher: 0.179 ± 0.031 for the first, 0.102 ± 0.019 for the second.

First: HCC1395 BREAST
Second: HCC1954 BREAST
The surviving fraction of the first is higher: 0.547 ± 0.11 for the first, 0.094 ± 0.0057 for the second.

SUM149 BREAST gave a surviving fraction of 0.0463 ± 0.0085.

Same assay, conditions: 50 nM; exposure time: 5 days

C33A CERVIX and HCC70 BREAST are within error of each other in surviving fraction: 0.11 ± 0.0091 for the first, 0.099 ± 0.032 for the second.

Compared with HCC1395 BREAST, HCC1954 BREAST is lower in surviving fraction: 0.419 ± 0.16 for the first, 0.0897 ± 0.0025 for the second.

In the case of SUM149 BREAST, the surviving fraction is reported as 0.0357 ± 0.00058.

Same assay, conditions: 100 nM; exposure time: 5 days

Going from C33A CERVIX to HCC70 BREAST, the surviving fraction falls from 0.173 ± 0.047 to 0.0517 ± 0.014.

First: HCC1395 BREAST
Second: HCC1954 BREAST
The surviving fraction of the first is higher: 0.362 ± 0.054 for the first, 0.071 ± 0.0028 for the second.

SUM149 BREAST gave a surviving fraction of 0.0373 ± 0.0038.

Same assay, conditions: 500 nM; exposure time: 5 days

C33A CERVIX and HCC70 BREAST are within error of each other in surviving fraction: 0.089 ± 0.021 for the first, 0.0543 ± 0.015 for the second.

First: HCC1395 BREAST
Second: HCC1954 BREAST
The surviving fraction of the first is higher: 0.396 ± 0.088 for the first, 0.0592 ± 0.012 for the second.

SUM149 BREAST was tested, and the surviving fraction was 0.0337 ± 0.006.

Same assay, conditions: 1000 nM; exposure time: 5 days

C33A CERVIX and HCC70 BREAST are within error of each other in surviving fraction: 0.0977 ± 0.025 for the first, 0.0647 ± 0.031 for the second.

First: HCC1395 BREAST
Second: HCC1954 BREAST
The surviving fraction of the first is higher: 0.405 ± 0.051 for the first, 0.0653 ± 0.015 for the second.

In the case of SUM149 BREAST, the surviving fraction is reported as 0.0307 ± 0.0023.

These test systems were tested with CC(=O)c1c(C)c2cnc(Nc3ccc(N4CCNCC4)cn3)nc2n(C2CCCC2)c1=O in the same assay as above. Settings: 0.5 nM; exposure time: 5 days.
Outline: as §1

C33A CERVIX and HCC70 BREAST are within error of each other in surviving fraction: 0.978 ± 0.065 for the first, 1.02 ± 0.051 for the second.

HCC1395 BREAST and HCC1954 BREAST are within error of each other in surviving fraction: 1.22 ± 0.076 for the first, 0.996 ± 0.22 for the second.

SUM149 BREAST was tested, and the surviving fraction was 1.15 ± 0.042.

Same assay, conditions: 1 nM; exposure time: 5 days

C33A CERVIX and HCC70 BREAST are within error of each other in surviving fraction: 1.05 ± 0.066 for the first, 0.999 ± 0.056 for the second.

HCC1395 BREAST and HCC1954 BREAST are within error of each other in surviving fraction: 0.965 ± 0.17 for the first, 0.907 ± 0.29 for the second.

For SUM149 BREAST, the surviving fraction was 1.09 ± 0.049.

Same assay, conditions: 5 nM; exposure time: 5 days

C33A CERVIX and HCC70 BREAST are within error of each other in surviving fraction: 1.14 ± 0.13 for the first, 1.13 ± 0.032 for the second.

HCC1395 BREAST and HCC1954 BREAST are within error of each other in surviving fraction: 1.19 ± 0.088 for the first, 1.07 ± 0.21 for the second.

With SUM149 BREAST the surviving fraction was 1.04 ± 0.076.

Same assay, conditions: 10 nM; exposure time: 5 days

C33A CERVIX and HCC70 BREAST are within error of each other in surviving fraction: 1.08 ± 0.067 for the first, 1.05 ± 0.034 for the second.

HCC1395 BREAST and HCC1954 BREAST are within error of each other in surviving fraction: 1.13 ± 0.087 for the first, 0.901 ± 0.4 for the second.

Test System SUM149 BREAST has a surviving fraction of 0.943 ± 0.11.

Same assay, conditions: 50 nM; exposure time: 5 days

C33A CERVIX and HCC70 BREAST are within error of each other in surviving fraction: 1.15 ± 0.13 for the first, 1.155 ± 0.0084 for the second.
